≈ marks a conversion by molar mass, not a printed value.
How the values were obtained:
[1] = system: Klebsiella pneumonia AG215; assay: MIC by broth microdilution, Klebsiella pneumonia; type: cell-based; conditions: strain AG215 Klebsiella pneumonia
N. gonorrhoeae = assay: Disk diffusion, N. gonorrhoeae; type: cell-based; conditions: 25 nmol
[2] = system: Enterobacter cloacae AG290; assay: MIC by broth microdilution, Enterobacter cloacae; type: cell-based; conditions: strain AG290 Enterobacter cloacae
[3] = system: Acinetobacter baumannii pittii AG225; assay: MIC by broth microdilution, Acinetobacter baumannii; type: cell-based; conditions: strain AG225 Acinetobacter baumannii pittii
[4] = system: E coli carrying specific resistance determinants; assay: MIC by broth microdilution, E coli carrying specific resistance determinants; type: cell-based
E coli wild type = assay: MIC by broth microdilution, wild type E coli; type: cell-based; conditions: for MIC50 E coli BM13 (AG06) wt: Table 2A (Example 2); for MIC50 E coli pH430 WT: Table 2B (Example 2); for MIC50 E coli AG01: strain AG01; for MIC50 E coli AG01 / MIC50 E coli AG03 / MIC50 E coli AG55: Table 1 (Example 2); for MIC50 E coli AG03: strain AG03; for MIC50 E coli AG55: strain AG55; for MIC AG212 E. coli: strain AG212 E. coli (ATCC25922)
P aeruginosa = assay: MIC by broth microdilution, P aeruginosa isolates; type: cell-based, Pseudomonas aeruginosa; conditions: for MIC AG220 P. aerugin: strain AG220 Pseudomonas aeruginosa ATCC27853
MRSA = assay: MIC by broth microdilution, MRSA isolates; type: cell-based; conditions: Table 1 (Example 2); for MIC50 MRSA AG38: strain AG38; for MIC50 MRSA AG39: strain AG39; for MIC50 MRSA AG42: strain AG42; for MIC50 MRSA AG44: strain AG44
M. smegmatis SZ380 = assay: MIC by broth microdilution, M. smegmatis; conditions: strain SZ380 Mycobacterium smegmatis

SMILES | MIC AG215 K. pneumon [1] | Disk diffusion 25 nmol N. gonorrhoeae (N. gonorrhoeae) | MIC AG290 E. cloacae [2] | MIC AG225 A. baumannii [3] | MIC50 E coli AG036 ANT(4′,4″) ([4]; Table 2B (Example 2)) | MIC50 E coli AG037 APH(3′)-III ([4]; Table 2B (Example 2)) | MIC50 E coli AG103 armA ([4]; Table 2B (Example 2)) | MIC50 E coli pH414 AAC(6′)-I ([4]; Table 2B (Example 2)) | MIC50 E coli pH415 AAC(6′)-II ([4]; Table 2B (Example 2)) | MIC50 E coli pH421 APH(3′)-I ([4]; Table 2B (Example 2)) | MIC50 E coli pH422 APH(3′)-II ([4]; Table 2B (Example 2)) | MIC50 E coli pH423 APH(3)-VI ([4]; Table 2B (Example 2)) | MIC50 E coli pH432 ANT(4′) ([4]; Table 2B (Example 2)) | MIC50 E coli BM13 (AG06) wt (E coli wild type) | MIC50 E coli pH430 WT (E coli wild type) | MIC50 E coli AG01 (E coli wild type) | MIC50 E coli AG03 (E coli wild type) | MIC50 E coli AG55 (E coli wild type) | MIC AG212 E. coli (E coli wild type) | MIC AG220 P. aerugin (P aeruginosa) | also measured
CC(N)C1OC(OC2C(N)CC(N)C(O)C2OC2OC(CO)C(OC3OC(CN)C(O)C(O)C3N)C2O)C(N)C(O)C1O (stereo not drawn) [Compound 166] | 0.25 to 0.5 µg/mL | 12 mm | 0.5 µg/mL (≈ 0.795 µM) | 1 µg/mL (≈ 1.59 µM) | 16 µg/mL (≈ 25.5 µM) | >64 µg/mL | 1 µg/mL (≈ 1.59 µM) | 0.5 μg/ml | 1-2 μg/ml | >32 μg/ml | >32 μg/ml | >32 μg/ml | 0.5 μg/ml | 0.5 to 1 µg/mL | 0.5 μg/ml | 2 µg/mL (≈ 3.18 µM) | 2 µg/mL (≈ 3.18 µM) | 2 µg/mL (≈ 3.18 µM) | 1 µg/mL (≈ 1.59 µM) | >32 µg/mL | MIC50 E coli AG09 AAC(6′) ([4]; AG09 AAC(6′), Table 2A (Example 2)): 0.5 µg/mL (≈ 0.795 µM); MIC50 E coli AG036 ANT(4′,4″) ([4]; Table 2A (Example 2)): 16 µg/mL (≈ 25.5 µM); MIC50 E coli AG037 APH(3′,5″) ([4]; AG037 APH(3′,5″), Table 2A (Example 2)): >64 µg/mL; MIC50 P aeruginosa AG31 (P aeruginosa; strain AG31, Table 1 (Example 2)): ≥128 µg/mL; MIC50 P aeruginosa AG32 (P aeruginosa; strain AG32, Table 1 (Example 2)): 128 µg/mL (≈ 204 µM); MIC50 P aeruginosa AG33 (P aeruginosa; strain AG33, Table 1 (Example 2)): ≥128 µg/mL; MIC50 P aeruginosa AG86 (P aeruginosa; strain AG86, Table 1 (Example 2)): 16 µg/mL (≈ 25.5 µM); MIC50 MRSA AG38 (MRSA): 2 µg/mL (≈ 3.18 µM); MIC50 MRSA AG39 (MRSA): >128 µg/mL; MIC50 MRSA AG42 (MRSA): >128 µg/mL; MIC50 MRSA AG44 (MRSA): 1 µg/mL (≈ 1.59 µM); MIC SZ380 M. smegmatis (M. smegmatis SZ380): 0.125 to 0.25 µg/mL
CC(O)C1OC(OC2C(N)CC(N)C(O)C2OC2OC(CO)C(OC3OC(CN)C(O)C(O)C3N)C2O)C(N)C(O)C1O (stereo not drawn) [Compound 156] | 1 µg/mL (≈ 1.59 µM) | 10 mm | 1 µg/mL (≈ 1.59 µM) | 2 µg/mL (≈ 3.18 µM) | 32 to 64 µg/mL | >32 µg/mL | 1 µg/mL (≈ 1.59 µM) | 1 μg/ml | 1 μg/ml | >32 μg/ml | >32 μg/ml | >32 μg/ml | 1 μg/ml | 1 µg/mL (≈ 1.59 µM) | 1 μg/ml | 4 µg/mL (≈ 6.35 µM) | 4 to 8 µg/mL | 4 µg/mL (≈ 6.35 µM) | 2 µg/mL (≈ 3.18 µM) | >32 µg/mL | MIC50 MRSA AG38 (MRSA): 4 to 8 µg/mL; MIC50 MRSA AG39 (MRSA): >128 µg/mL; MIC50 MRSA AG42 (MRSA): >128 µg/mL; MIC50 MRSA AG44 (MRSA): 2 to 4 µg/mL; MIC SZ380 M. smegmatis (M. smegmatis SZ380): 0.5 µg/mL (≈ 0.794 µM)

— patent US11466044B2 (WAYNE STATE UNIVERSITY, priority 2017, dated 2022)
